# From patent US20240409585A1, “MACROCYCLIC IMMUNOMODULATORS” (priority 2021, published 2024)
# Bridge positions count the residues as written; N and C are the ends. Square brackets hold non-standard residues; d marks the D form. Peptide text beside a SMILES is read from it. Bip = N[C@@H](Cc1ccc(-c2ccccc2)cc1)C(=O)O; Phe(3-Cl) = N[C@@H](Cc1cccc(Cl)c1)C(=O)O; Phe(3-OMe) = COc1cccc(C[C@H](N)C(=O)O)c1; Phe(3-Me) = Cc1cccc(C[C@H](N)C(=O)O)c1; Cha = N[C@@H](CC1CCCCC1)C(=O)O; dPip = O=C(O)[C@H]1CCCCN1; NMeA = CN[C@@H](C)C(=O)O; Nle = CCCC[C@H](N)C(=O)O; Orn = NCCC[C@H](N)C(=O)O; Dab = NCC[C@H](N)C(=O)O
# Target: T1, PE-labeled human PD-L1-Ig binding to Jurkat cell line over-expressing human PD-1 (Jurkat-PD-1) (Homo sapiens, UniProt Q15116)
# T1 construct: expressed in transfected cells; host or cells: Jurkat
# T1 sequence (Q15116 25-288): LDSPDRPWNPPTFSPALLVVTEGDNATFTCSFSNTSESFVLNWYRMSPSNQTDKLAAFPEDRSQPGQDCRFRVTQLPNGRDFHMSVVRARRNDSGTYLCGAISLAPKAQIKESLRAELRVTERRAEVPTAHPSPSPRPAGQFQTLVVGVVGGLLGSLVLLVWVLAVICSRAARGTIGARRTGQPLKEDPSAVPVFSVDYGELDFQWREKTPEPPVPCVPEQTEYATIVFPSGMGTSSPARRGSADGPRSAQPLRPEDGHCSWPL
# Assay: Jurkat-PD-1 Cell Binding High-Content Screening Assay (CBA): Method 1
# Details: Jurkat-hPD-1 cells, PE-labeled PD-L1-Ig 20 nM final; read-out: Jurkat HPDL1 PD1 IC50 (uM) (Method 1)
row,SMILES,IC50 [µM]
1,CC(C)C[C@@H]1NC(=O)[C@H](CCN)NC(=O)[C@@H](CC(C)C)NC(=O)[C@H](C)N(C)C(=O)[C@H](Cc2c[nH]c3ccccc23)NC(=O)[C@H](Cc2ccc(-c3ccccc3)cc2)NC(=O)[C@H](C(C)C)NC(=O)[C@H](Cc2c[nH]c3ccccc23)NC(=O)[C@H](CC(=O)O)NC(=O)[C@H](Cc2ccc(O)cc2)NC(=O)[C@H](CC(N)=O)NC(=O)CSC[C@@H](C(=O)N[C@@H](C)C(N)=O)NC(=O)[C@H]([C@@H](C)O)NC(=O)[C@H](C(C)C)NC1=O [Compound 1263] ({CH2CO}-NYDWV[Bip]W[NMeA][dL][Dab]LVTCA-NH2; thioether N-14),0.89
2,CC(C)C[C@@H]1NC(=O)[C@H](CCN)NC(=O)[C@@H](CC(C)C)NC(=O)[C@H](C)N(C)C(=O)[C@H](C(C)C)NC(=O)[C@H](Cc2ccc(-c3ccccc3)cc2)NC(=O)[C@H](C(C)C)NC(=O)[C@H](Cc2cccc(Cl)c2)NC(=O)[C@H](CC(=O)O)NC(=O)[C@H](Cc2ccc(O)cc2)NC(=O)[C@H](CC(N)=O)NC(=O)CSC[C@@H](C(=O)N[C@@H](C)C(N)=O)NC(=O)[C@H]([C@@H](C)O)NC(=O)[C@H](C(C)C)NC1=O [Compound 1265] ({CH2CO}-NYD[Phe(3-Cl)]V[Bip]V[NMeA][dL][Dab]LVTCA-NH2; thioether N-14),0.01
3,CC(C)C[C@@H]1NC(=O)[C@H](CCN)NC(=O)[C@@H](CC(C)C)NC(=O)[C@H](C)N(C)C(=O)[C@H](CCCN)NC(=O)[C@H](Cc2ccc(-c3ccccc3)cc2)NC(=O)[C@H](C(C)C)NC(=O)[C@H](Cc2c[nH]c3ccccc23)NC(=O)[C@H](CC(=O)O)NC(=O)[C@H](Cc2ccc(O)cc2)NC(=O)[C@H](CC(N)=O)NC(=O)CSC[C@@H](C(=O)N[C@@H](C)C(N)=O)NC(=O)[C@H]([C@@H](C)O)NC(=O)[C@H](C(C)C)NC1=O [Compound 1266] ({CH2CO}-NYDWV[Bip][Orn][NMeA][dL][Dab]LVTCA-NH2; thioether N-14),0.03
4,CCCC[C@@H]1NC(=O)[C@H](CCN)NC(=O)[C@@H](CC(C)C)NC(=O)[C@H](C)N(C)C(=O)[C@H](CCCN)NC(=O)[C@H](Cc2ccc(-c3ccccc3)cc2)NC(=O)[C@H](C(C)C)NC(=O)[C@H](Cc2c[nH]c3ccccc23)NC(=O)[C@H](CC(=O)O)NC(=O)[C@H](Cc2ccc(O)cc2)NC(=O)[C@H](CC(N)=O)NC(=O)CSC[C@@H](C(=O)N[C@@H](C)C(N)=O)NC(=O)[C@H]([C@@H](C)O)NC(=O)[C@H](C(C)C)NC1=O [Compound 1267] ({CH2CO}-NYDWV[Bip][Orn][NMeA][dL][Dab][Nle]VTCA-NH2; thioether N-14),0.26
5,CC(C)C[C@@H]1NC(=O)[C@H](CCN)NC(=O)[C@@H](CC(C)C)NC(=O)[C@H]2CCCCN2C(=O)[C@H](C(C)C)NC(=O)[C@H](Cc2ccc(-c3ccccc3)cc2)NC(=O)[C@H](C(C)C)NC(=O)[C@H](Cc2c[nH]c3ccccc23)NC(=O)[C@H](CC(=O)O)NC(=O)[C@H](Cc2ccc(O)cc2)NC(=O)[C@H](CC(N)=O)NC(=O)CSC[C@@H](C(=O)N[C@@H](C)C(N)=O)NC(=O)[C@H]([C@@H](C)O)NC(=O)[C@H](C(C)C)NC1=O [Compound 1268] ({CH2CO}-NYDWV[Bip]V[dPip][dL][Dab]LVTCA-NH2; thioether N-14),0.11
6,CC(C)C[C@@H]1NC(=O)[C@H](CCCCN)NC(=O)[C@@H](CC(C)C)NC(=O)[C@H](C)N(C)C(=O)[C@H](CCCNC(=N)N)NC(=O)[C@H](Cc2ccc(-c3ccccc3)cc2)NC(=O)[C@H](C(C)C)NC(=O)[C@H](Cc2c[nH]c3ccccc23)NC(=O)[C@H](CC(=O)O)NC(=O)[C@H](Cc2ccc(O)cc2)NC(=O)[C@H](CC(N)=O)NC(=O)CSC[C@@H](C(=O)N[C@@H](C)C(N)=O)NC(=O)[C@H]([C@@H](C)O)NC(=O)[C@H](C(C)C)NC1=O [Compound 1269] ({CH2CO}-NYDWV[Bip]R[NMeA][dL]KLVTCA-NH2; thioether N-14),0.03
7,CC(C)C[C@@H]1NC(=O)[C@H](CCN)NC(=O)[C@@H](CC(C)C)NC(=O)[C@H](C)N(C)C(=O)[C@H](CC(C)C)NC(=O)[C@H](Cc2ccc(-c3ccccc3)cc2)NC(=O)[C@H](C(C)C)NC(=O)[C@H](Cc2c[nH]c3ccccc23)NC(=O)[C@H](CC(=O)O)NC(=O)[C@H](Cc2ccc(O)cc2)NC(=O)[C@H](CC(N)=O)NC(=O)CSC[C@@H](C(=O)N[C@@H](C)C(N)=O)NC(=O)[C@H]([C@@H](C)O)NC(=O)[C@H](C(C)C)NC1=O [Compound 1270] ({CH2CO}-NYDWV[Bip]L[NMeA][dL][Dab]LVTCA-NH2; thioether N-14),0.11
8,CCCC[C@@H]1NC(=O)[C@H](Cc2ccc(-c3ccccc3)cc2)NC(=O)[C@H](C(C)C)NC(=O)[C@H](Cc2c[nH]c3ccccc23)NC(=O)[C@H](CC(=O)O)NC(=O)[C@H](Cc2ccc(O)cc2)NC(=O)[C@H](CC(N)=O)NC(=O)CSC[C@@H](C(=O)N[C@@H](C)C(N)=O)NC(=O)[C@H]([C@@H](C)O)NC(=O)[C@H](C(C)C)NC(=O)[C@H](CC(C)C)NC(=O)[C@H](CCN)NC(=O)[C@@H](CC(C)C)NC(=O)[C@H](C)N(C)C1=O [Compound 1271] ({CH2CO}-NYDWV[Bip][Nle][NMeA][dL][Dab]LVTCA-NH2; thioether N-14),0.03
9,CC(C)C[C@@H]1NC(=O)[C@H](CCN)NC(=O)[C@@H](CC(C)C)NC(=O)[C@H](C)N(C)C(=O)[C@H](Cc2ccccc2)NC(=O)[C@H](Cc2ccc(-c3ccccc3)cc2)NC(=O)[C@H](C(C)C)NC(=O)[C@H](Cc2c[nH]c3ccccc23)NC(=O)[C@H](CC(=O)O)NC(=O)[C@H](Cc2ccc(O)cc2)NC(=O)[C@H](CC(N)=O)NC(=O)CSC[C@@H](C(=O)N[C@@H](C)C(N)=O)NC(=O)[C@H]([C@@H](C)O)NC(=O)[C@H](C(C)C)NC1=O [Compound 1272] ({CH2CO}-NYDWV[Bip]F[NMeA][dL][Dab]LVTCA-NH2; thioether N-14),0.16
10,Cc1cccc(C[C@@H]2NC(=O)[C@H](CC(=O)O)NC(=O)[C@H](Cc3ccc(O)cc3)NC(=O)[C@H](CC(N)=O)NC(=O)CSC[C@@H](C(=O)N[C@@H](C)C(N)=O)NC(=O)[C@H]([C@@H](C)O)NC(=O)[C@H](C(C)C)NC(=O)[C@H](CC(C)C)NC(=O)[C@H](CCCNC(=N)N)NC(=O)[C@@H](CC(C)C)NC(=O)[C@H](C)N(C)C(=O)[C@H](C(C)C)NC(=O)[C@H](Cc3ccc(-c4ccccc4)cc3)NC(=O)[C@H](C(C)C)NC2=O)c1 [Compound 1273] ({CH2CO}-NYD[Phe(3-Me)]V[Bip]V[NMeA][dL]RLVTCA-NH2; thioether N-14),0.01

# Results, then the compound that gave them:
row,IC50 [µM],SMILES
1,0.03,CC(C)C[C@@H]1NC(=O)[C@H](CCCNC(=N)N)NC(=O)[C@@H](CC(C)C)NC(=O)[C@H](C)N(C)C(=O)[C@H](C(C)C)NC(=O)[C@H](Cc2ccc(-c3ccccc3)cc2)NC(=O)[C@H](C(C)C)NC(=O)[C@H](Cc2cccc(Cl)c2)NC(=O)[C@H](CC(=O)O)NC(=O)[C@H](Cc2ccc(O)cc2)NC(=O)[C@H](CC(N)=O)NC(=O)CSC[C@@H](C(=O)N[C@@H](C)C(N)=O)NC(=O)[C@H]([C@@H](C)O)NC(=O)[C@H](C(C)C)NC1=O [Compound 1274] ({CH2CO}-NYD[Phe(3-Cl)]V[Bip]V[NMeA][dL]RLVTCA-NH2; thioether N-14)
2,0.03,CC(C)C[C@H]1NC(=O)[C@H](C)N(C)C(=O)[C@H](CCCNC(=N)N)NC(=O)[C@H](Cc2ccc(-c3ccccc3)cc2)NC(=O)[C@H](C(C)C)NC(=O)[C@H](Cc2c[nH]c3ccccc23)NC(=O)[C@H](CC(=O)O)NC(=O)[C@H](Cc2ccc(O)cc2)NC(=O)[C@H](CC(N)=O)NC(=O)CSC[C@@H](C(=O)N[C@@H](C)C(N)=O)NC(=O)[C@H]([C@@H](C)O)NC(=O)[C@H](C(C)C)NC(=O)[C@H](CC2CCCCC2)NC(=O)[C@H](CCCNC(=N)N)NC1=O [Compound 1275] ({CH2CO}-NYDWV[Bip]R[NMeA][dL]R[Cha]VTCA-NH2; thioether N-14)
3,0.03,CC(C)C[C@H]1NC(=O)[C@H](C)N(C)C(=O)[C@H](CCCN)NC(=O)[C@H](Cc2ccc(-c3ccccc3)cc2)NC(=O)[C@H](C(C)C)NC(=O)[C@H](Cc2c[nH]c3ccccc23)NC(=O)[C@H](CC(=O)O)NC(=O)[C@H](Cc2ccc(O)cc2)NC(=O)[C@H](CC(N)=O)NC(=O)CSC[C@@H](C(=O)N[C@@H](C)C(N)=O)NC(=O)[C@H]([C@@H](C)O)NC(=O)[C@H](C(C)C)NC(=O)[C@H](CC2CCCCC2)NC(=O)[C@H](CCCNC(=N)N)NC1=O [Compound 1276] ({CH2CO}-NYDWV[Bip][Orn][NMeA][dL]R[Cha]VTCA-NH2; thioether N-14)
4,0.02,COc1cccc(C[C@@H]2NC(=O)[C@H](CC(=O)O)NC(=O)[C@H](Cc3ccc(O)cc3)NC(=O)[C@H](CC(N)=O)NC(=O)CSC[C@@H](C(=O)N[C@@H](C)C(N)=O)NC(=O)[C@H]([C@@H](C)O)NC(=O)[C@H](C(C)C)NC(=O)[C@H](CC(C)C)NC(=O)[C@H](CCN)NC(=O)[C@@H](CC(C)C)NC(=O)[C@H](C)N(C)C(=O)[C@H](C(C)C)NC(=O)[C@H](Cc3ccc(-c4ccccc4)cc3)NC(=O)[C@H](C(C)C)NC2=O)c1 [Compound 1277] ({CH2CO}-NYD[Phe(3-OMe)]V[Bip]V[NMeA][dL][Dab]LVTCA-NH2; thioether N-14)
5,0.01,CC(C)C[C@H]1NC(=O)[C@H](C)N(C)C(=O)[C@H](CCCN)NC(=O)[C@H](Cc2ccc(-c3ccccc3)cc2)NC(=O)[C@H](C(C)C)NC(=O)[C@H](Cc2c[nH]c3ccccc23)NC(=O)[C@H](CC(=O)O)NC(=O)[C@H](Cc2ccc(O)cc2)NC(=O)[C@H](CC(N)=O)NC(=O)CSC[C@@H](C(=O)N[C@@H](C)C(N)=O)NC(=O)[C@H]([C@@H](C)O)NC(=O)[C@H](C(C)C)NC(=O)[C@H](CC2CCCCC2)NC(=O)[C@H](CCN)NC1=O [Compound 1278] ({CH2CO}-NYDWV[Bip][Orn][NMeA][dL][Dab][Cha]VTCA-NH2; thioether N-14)
6,0.02,CC(C)C[C@@H]1NC(=O)[C@H](CCN)NC(=O)[C@@H](CC(C)C)NC(=O)[C@H]2CCCN2C(=O)[C@H](C(C)C)NC(=O)[C@H](Cc2ccc(-c3ccccc3)cc2)NC(=O)[C@H](C(C)C)NC(=O)[C@H](Cc2c[nH]c3ccccc23)NC(=O)[C@H](CC(=O)O)NC(=O)[C@H](Cc2ccc(O)cc2)NC(=O)[C@H](CC(N)=O)NC(=O)CSC[C@@H](C(=O)N[C@@H](C)C(N)=O)NC(=O)[C@H]([C@@H](C)O)NC(=O)[C@H](C(C)C)NC1=O [Compound 1279] ({CH2CO}-NYDWV[Bip]V[dP][dL][Dab]LVTCA-NH2; thioether N-14)
